These results are taken from paper PMC11191877, “Discovery of new Schiff bases of the disalicylic acid scaffold as DNA gyrase and topoisomerase IV inhibitors endowed with antibacterial properties” (Frontiers in Chemistry, 2024).

For assay [1], the system named is Pseudomonas aeruginosa. Description: Modified Kirby-Bauer disc diffusion. Type of assay: cell-based. The note with it: Pseudomonas aeruginosa (G−). The procedure:
(§1) The antimicrobial activity of compounds 5a-k was assessed using a modified Kirby-Bauer disc diffusion method ([Alkhaldi et al., 2019]; [Al-Wahaibi et al., 2021b]; [Manso et al., 2021]; [Ecevit et al., 2022]). […] Ciprofloxacin was used as a reference medication. […] Compounds 5f-k had promising antibacterial action against Gram-positive and Gram-negative bacteria, ranging from 75% to 115% of typical ciprofloxacin levels. […]
(§2) incubated at 35-37 °C for 24-48 hours and yeast as Candida albicans (ATCC 7102) incubated at 30 °C for 24-48 hours and, then the diameters of the inhibition zones were measured in millimeters. Standard discs of ciprofloxacin (Antibacterial agent), Fluconazole (Antifungal agent) served as positive controls for antimicrobial activity but filter discs impregnated with 10 µl of solvent (distilled water, chloroform, DMSO) were used as a negative control. Blank paper disks (Schleicher & Schuell, Spain) with a diameter of 8.0 mm were impregnated 10µ of tested concentration of the stock solutions. When a filter paper disc impregnated with a tested chemical is placed on agar the chemical will diffuse from the disc into the agar. This diffusion will place the chemical in the agar only around the disc. The solubility of the chemical and its molecular size will determine the size of the area of chemical infiltration around the disc. If an organism is placed on the agar it will not grow in the area around the disc if it is susceptible to the chemical. This area of no growth around the disc is known as a “Zone of inhibition” or" Clear zone". For the disc diffusion, the zone diameters were measured with slipping calipers of the National Committee for Clinical Laboratory […]
(§3) Agar-based methods such as E-test and disk diffusion can be good alternatives because they are simpler and faster than broth-based methods. […]
On the technique in general: A growth-free zone around the sample is the usual read-out of agar diffusion tests.

Assay [2] has as its system Bacillus subtilis. Description: Modified Kirby-Bauer disc diffusion. Type of assay: cell-based. The settings on record: Bacillus subtilis (G+). The procedure:
as §1, §2, §3

The subject of assay [3] is Escherichia Coli. Description: Modified Kirby-Bauer disc diffusion. The settings on record: Escherichia Coli (G−). Type of assay: cell-based. The protocol: as §1, §2, §3
The next assay deals with Staph. aureus. Description: Modified Kirby-Bauer disc diffusion. Type of assay: cell-based, Staphylococcus aureus. The settings on record: Staph. aureus (G+). The protocol:
as §1, §2, §3

In assay [4] the test system is Pseudomonas aeruginosa. Description: MIC, twofold serial dilution, 96-well microtiter plate. Type of assay: cell-based. The note with it: Pseudomonas aeruginosa (G−); read-out: Minimum inhibitory concentration (MIC). The procedure:
(§4) The antibacterial activity of compounds 5f, 5h, 5i, and 5k were evaluated using a twofold serial dilution method ([Parasa et al., 2011]), with ciprofloxacin as the reference compound. The MIC values for certain compounds were obtained through dose-response experiments. The stated values are based on a minimum of two independent experiments, with three replicates per concentration in each experiment. The experimental details can be found in Appendix A (Supplementary Material). […]
(§5) 4.2.2. Minimum inhibitory concentration assay
(§6) In 96-well microtiter plates and […] of fresh bacterial culture of a single McFarland unit overnight, a double serial dilution of each compound […] in sterile standard saline were prepared to every single source well. Ciprofloxacin antibiotic (5 mg / mL - 1) and normal saline were included as standard reference in each assay. The plates were incubated at 37 0C overnight. As an indicator of bacterial growth, […] of p-iodonitrotetrazolium violet (INT) was added to each well and incubated at 37 0C for 30 […]
(§7) min. MIC values are recorded as the lowest concentration of the extract that completely inhibited bacterial growth that is clear well. The colorless tetrazolidium salt acts as an electron accepter and is reduced to a red colored formazan product by biological activity organisms. Where bacterial growth was inhibited, the solution in the well remained clear after incubation with INT. […]
(§8) SybrGOLD in T10 buffer (10 mM Tris HCl with pH 8.0 and 1 mM EDTA) was added. […]

Assay [5] deals with Bacillus subtilis. The description is as above. Type of assay: cell-based. The settings on record: Bacillus subtilis (G+); read-out: Minimum inhibitory concentration (MIC). The protocol:
as §4, §5, §6, §7, §8

For assay [6], the system named is Escherichia Coli. The assay is described as above. The note with it: Escherichia coli (G−); read-out: Minimum inhibitory concentration (MIC). Type of assay: cell-based. The protocol:
as §4, §5, §6, §7, §8

In another assay the test system is Staphylococcus aureus. The assay is described as above. The settings on record: Staphylococcus aureus (G+); read-out: Minimum inhibitory concentration (MIC). Type of assay: cell-based. The procedure: as §4, §5, §6, §7, §8
For another assay, the system named is Aspergillus flavus. Description: Modified Kirby-Bauer disc diffusion (antifungal). Type of assay: cell-based. The settings on record: Aspergillus flavus (fungi). The procedure: (§9) The antimicrobial activity of compounds 5a-k was assessed using a modified Kirby-Bauer disc diffusion method ([Alkhaldi et al., 2019]; [Al-Wahaibi et al., 2021b]; [Manso et al., 2021]; [Ecevit et al., 2022]). […] Ciprofloxacin was used as a reference medication. […] Compounds 5f-k had promising antibacterial action against Gram-positive and Gram-negative bacteria, ranging from 75% to 115% of typical ciprofloxacin levels.
(§10) In addition, the synthesized compounds 5a-k were evaluated for their antifungal activity against A. flavus and C. albicans, with Fluconazole as a reference medication (Table 1). […]
Standard discs of ciprofloxacin (Antibacterial agent), Fluconazole (Antifungal agent) served as positive controls for antimicrobial activity but filter discs impregnated with 10 µl of solvent (distilled water, chloroform, DMSO) were used as a negative control. Blank paper disks (Schleicher & Schuell, Spain) with a diameter of 8.0 mm were impregnated 10µ of tested concentration of the stock solutions. When a filter paper disc impregnated with a tested chemical is placed on agar the chemical will diffuse from the disc into the agar. This diffusion will place the chemical in the agar only around the disc. The solubility of the chemical and its molecular size will determine the size of the area of chemical infiltration around the disc. If an organism is placed on the agar it will not grow in the area around the disc if it is susceptible to the chemical. This area of no growth around the disc is known as a “Zone of inhibition” or" Clear zone". For the disc diffusion, the zone diameters were measured with slipping calipers of the National Committee for Clinical Laboratory […]
as §3

For another assay, the system named is Candida albicans. Description: Modified Kirby-Bauer disc diffusion (antifungal). Type of assay: cell-based. The note with it: Candida albicans (fungi). The protocol:
as §9, §10, §2, §3

Another assay concerns M. tuberculosis H37Rv. Set-up: method as in Abdu-Allah et al., 2017. The note with it: ref Abdu-Allah et al., 2017; cited from earlier work.
The next assay concerns mycobacterium. Set-up: method as in Abdu-Allah et al., 2017. The note with it: nutrition starvation paradigm, 10 μg/mL; ref Abdu-Allah et al., 2017; cited from earlier work.
A further assay concerns B. subtilis. Set-up: method as in Shi et al., 2007. The note with it: ref Shi et al., 2007; cited from earlier work.
The subject of a further assay is P. fluorescence. Further details: method as in Shi et al., 2007. The note with it: ref Shi et al., 2007; cited from earlier work.
A further assay deals with E. Coli. Further details: method as in Shi et al., 2007. The settings on record: ref Shi et al., 2007; cited from earlier work.
For assay [7], the system named is E. coli b-Ketoacyl-acyl carrier protein synthase III (ecKAS III). Set-up: method as in Cheng et al., 2010. The settings on record: ref Cheng et al., 2010; cited from earlier work.
In assay [8] the test system is DNA methyltransferases (DNMTs). Further details: method as in Leroy et al., 2019. The settings on record: ref Leroy et al., 2019; cited from earlier work.
Assay [9] concerns the target S. aureus topoisomerase IV. The settings on record: read-out: IC50 S. aureus topoisomerase IV; internal standard value stated in the supplementary method; cited from earlier work.

pIC50: −log10 of the molar value. ≈ marks a conversion by molar mass, not a printed value.

In the case of `O=C(O)c1cn(C2CC2)c2cc(N3CCNCC3)c(F)cc2c1=O` [Ciprofloxacin, reference compound], the Inhibition zone diameter with Pseudomonas aeruginosa [1], with Bacillus subtilis [2], in the assay on Escherichia Coli [3] and in the assay on Staph. aureus was 40 mm/mg Sample in each case. Also, the MIC with Pseudomonas aeruginosa [4] amounted to 0.06 µg/mL (≈ 0.181 µM); in the assay with Bacillus subtilis [5], 0.01 µg/mL (≈ 0.0302 µM); in the assay on Escherichia Coli [6] it was 0.06 µg/mL (≈ 0.181 µM); in the assay on Staphylococcus aureus, 0.03 µg/mL (≈ 0.0905 µM).

On to `OC(Cn1cncn1)(Cn1cncn1)c1ccc(F)cc1F` [Fluconazole, reference compound], for which the Inhibition zone diameter in the assay with Aspergillus flavus and in the assay with Candida albicans was 40 mm/mg Sample throughout.

Take `O=C(N/N=C1\C(=O)N(Cc2ccc(Cl)cc2)c2ccccc21)c1cc(-n2cc(-c3ccccc3)nn2)ccc1O` [III]: the MIC in the assay with M. tuberculosis H37Rv is 0.39 µg/mL (≈ 0.71 µM). Besides, the “reduction of bacterial count” value with mycobacterium is given as 2.4 logs.

On to `CC(C/N=C/c1cc(Cl)ccc1O)C/N=C/c1cc(Cl)ccc1O` [II], for which the MIC was 1.8 µg/mL (≈ 4.93 µM) in the assay on B. subtilis, 3.6 µg/mL (≈ 9.86 µM) in the assay on P. fluorescence and 4.9 µg/mL (≈ 13.4 µM) in the assay with E. Coli.

In the case of `CC(CNC(=O)c1ccccc1O)/N=C/c1cc(Cl)cc(Cl)c1O` (stereo not drawn) [IV], the “inhibitory activity against ecKAS III” value in assay [7] was “potent inhibitory activity”.

Take `NC[C@H]1O[C@H](O[C@H]2[C@H](O)[C@@H](O[C@H]3O[C@H](CO)[C@@H](O)[C@H](N)[C@H]3O)[C@H](N)C[C@@H]2N)[C@H](O)[C@@H](O)[C@@H]1O` [Kanamycin]: the MIC in the assay on B. subtilis is 0.39 µg/mL (≈ 0.805 µM); in the assay with P. fluorescence, 3.9 µg/mL (≈ 8.05 µM); in the assay with E. Coli, 3.9 µg/mL (≈ 8.05 µM).

As for `O=C(O)c1cc(Cc2ccc(O)c(C(=O)O)c2)ccc1O` [NSC 14778, disalicylic acid methylene], the “inhibitory activity on DNMTs” value in assay [8] is “within the micromolar range”.

Regarding `CO[C@@H]1[C@@H](OC(N)=O)[C@@H](O)[C@H](Oc2ccc3c(O)c(NC(=O)c4ccc(O)c(CC=C(C)C)c4)c(=O)oc3c2C)OC1(C)C` [Novobiocin], the pIC50 (as a rule, the negative decadic logarithm of the IC50, by convention in mol/L) in assay [9] is 4.57.

Regarding “N'-((E)-2-Chlorobenzylidene)-4-(4-(2-((Z)-2-chlorobenzylidene)hydrazine-1-carbonyl)-3-hydroxybenzyl)-2-hydroxybenzohydrazide [Compound 5e]”, the Inhibition zone diameter came out at 28 mm/mg Sample with Pseudomonas aeruginosa [1]; 27 mm/mg Sample with Bacillus subtilis [2]; 28 mm/mg Sample with Escherichia Coli [3]; 0.0 mm/mg Sample in the assay on Aspergillus flavus; 30 mm/mg Sample in the assay with Staph. aureus; 12 mm/mg Sample in the assay with Candida albicans.

As to “N'-((E)-4-Bromobenzylidene)-4-(4-(2-((Z)-4-bromobenzylidene)hydrazine-1-carbonyl)-3-hydroxybenzyl)-2-hydroxybenzohydrazide [Compound 5d]”, the Inhibition zone diameter in the assay on Pseudomonas aeruginosa [1] came out at 26 mm/mg Sample; with Bacillus subtilis [2] it was 28 mm/mg Sample; with Escherichia Coli [3], 30 mm/mg Sample; with Aspergillus flavus it was 0.0 mm/mg Sample; in the assay on Staph. aureus, 31 mm/mg Sample; in the assay with Candida albicans it was 10 mm/mg Sample.

“N'-((E)-4-Chlorobenzylidene)-4-(4-(2-((Z)-4-chlorobenzylidene)hydrazine-1-carbonyl)-3-hydroxybenzyl)-2-hydroxybenzohydrazide [Compound 5b]”: the Inhibition zone diameter amounted to 26 mm/mg Sample in the assay with Pseudomonas aeruginosa [1]; 26 mm/mg Sample in the assay on Bacillus subtilis [2]; 26 mm/mg Sample in the assay on Escherichia Coli [3]; 0.0 mm/mg Sample with Aspergillus flavus; 27 mm/mg Sample in the assay on Staph. aureus; 7 mm/mg Sample in the assay on Candida albicans.

“N'-((E)-4-Methoxybenzylidene)-4-(4-(2-((Z)-4-methoxybenzylidene)hydrazine-1-carbonyl)-3-hydroxybenzyl)-2-hydroxybenzohydrazide [Compound 5j]”: the Inhibition zone diameter with Pseudomonas aeruginosa [1] came to 30 mm/mg Sample; with Bacillus subtilis [2], 31 mm/mg Sample; with Escherichia Coli [3], 30 mm/mg Sample; in the assay with Aspergillus flavus, 0.0 mm/mg Sample; in the assay with Staph. aureus, 33 mm/mg Sample; with Candida albicans, 0.0 mm/mg Sample.

Regarding “N'-((E)-4-Nitrobenzylidene)-4-(4-(2-((Z)-4-nitrobenzylidene)hydrazine-1-carbonyl)-3-hydroxybenzyl)-2-hydroxybenzohydrazide [Compound 5c]”, the Inhibition zone diameter with Pseudomonas aeruginosa [1] came out at 25 mm/mg Sample; in the assay with Bacillus subtilis [2] it was 26 mm/mg Sample; with Escherichia Coli [3] it was 27 mm/mg Sample; in the assay with Aspergillus flavus, 0.0 mm/mg Sample; with Staph. aureus it was 27 mm/mg Sample; in the assay on Candida albicans, 11 mm/mg Sample.

Regarding “N'-((E)-Benzylidene)-4-(4-(2-((Z)-benzylidene)hydrazine-1-carbonyl)-3-hydroxy benzyl)-2-hydroxybenzohydrazide [Compound 5a]”, the Inhibition zone diameter came out at 21 mm/mg Sample with Pseudomonas aeruginosa [1]; 21 mm/mg Sample with Bacillus subtilis [2]; 24 mm/mg Sample in the assay on Escherichia Coli [3]; 0.0 mm/mg Sample with Aspergillus flavus; 25 mm/mg Sample with Staph. aureus; 0.0 mm/mg Sample in the assay on Candida albicans.
